In US7740835B2, “Anaerobic bacterium as a drug for cancer gene therapy” (Anaeropharma Science Inc., priority 2000, dated 2010):

System: Lewis lung cancer cells
Assay: Growth of B. longum in tumor tissues by administering lacturose
Assay type: in vivo, mice
Settings: B. longum 105-A administered; 1 ml of 20 t lacturose solution intraperitoneally for 8 successive days; analysed on the 9th day
From the text: Lacturose (provided by Nikken Chemicals Co., Ltd.) is a synthetic saccharide not occurring in nature, and it is known that lacturose cannot be metabolized by humans, mice and pigs (Biochem. Biophys. Acta, 110, 635 (1965), Pediatrics, 32, 1033 (1963), Gastroenterology, 47, 26 (1964), Die Nahrung, 11, 39 (1967)). On the other hand, B. longum is capable of growing with lacturose as a carbon source.
As a result, the number of B. longum bacteria present of the tumor tissues in the tumor-bearing mouse group given lacturose was 200-times as more as that of the control group not given lacturose.

OC[C@H]1O[C@@H](O[C@@H]2[C@@H](CO)OC(O)(CO)[C@H]2O)[C@H](O)[C@@H](O)[C@H]1O (stereo partly drawn) [lacturose, 4-0-β-D-galactopyranosyl-D-fructofuranose]
number of B. longum bacteria in tumor tissues of the group given lacturose relative to the control group not given lacturose: 200 times
